In ChEMBL document CHEMBL3797178, “Synthesis, antimycobacterial and antibacterial activity of 1-(6-amino-3,5-difluoropyridin-2-yl)fluoroquinolone derivatives containing an oxime functional moiety” (2016):
Converted amounts (≈) assume the structure as drawn.

Columns and labels:
Assay type in all cases: functional
[1] = tested on: Pseudomonas aeruginosa; experiment: Antibacterial activity against Pseudomonas aeruginosa 14-19 after 18 to 24 hrs by CLSI M100-S11 method
[2] = tested on: Escherichia coli; experiment: Antibacterial activity against extended-spectrum beta-lactamase-producing Escherichia coli 14-2 after 18 to 24 hrs by CLSI M100-S11 method
[3] = tested on: Klebsiella pneumoniae; experiment: Antibacterial activity against Klebsiella pneumoniae 14-4 after 18 to 24 hrs by CLSI M100-S11 method
[4] = tested on: Pseudomonas aeruginosa; experiment: Antibacterial activity against Pseudomonas aeruginosa 14-16 after 18 to 24 hrs by CLSI M100-S11 method
[5] = tested on: Klebsiella pneumoniae; experiment: Antibacterial activity against Klebsiella pneumoniae 14-1 after 18 to 24 hrs by CLSI M100-S11 method
[6] = tested on: Staphylococcus aureus; experiment: Antibacterial activity against methicillin-resistant Staphylococcus aureus 14-5 after 18 to 24 hrs by CLSI M100-S11 method
[7] = tested on: Staphylococcus epidermidis; experiment: Antibacterial activity against methicillin-resistant Staphylococcus epidermidis 14-37 after 18 to 24 hrs by CLSI M100-S11 method
[8] = tested on: Staphylococcus epidermidis; experiment: Antibacterial activity against methicillin-sensitive Staphylococcus epidermidis 14-2 after 18 to 24 hrs by CLSI M100-S11 method
[9] = tested on: Pseudomonas aeruginosa; experiment: Antibacterial activity against Pseudomonas aeruginosa 14-15 after 18 to 24 hrs by CLSI M100-S11 method
[10] = tested on: Klebsiella pneumoniae; experiment: Antibacterial activity against extended-spectrum beta-lactamase-producing Klebsiella pneumoniae 14-19 after 18 to 24 hrs by CLSI M100-S11 method
[11] = tested on: Staphylococcus aureus; experiment: Antibacterial activity against methicillin-sensitive Staphylococcus aureus 14-2 after 18 to 24 hrs by CLSI M100-S11 method
[12] = tested on: Escherichia coli; experiment: Antibacterial activity against Escherichia coli 14-1 after 18 to 24 hrs by CLSI M100-S11 method
[13] = tested on: Escherichia coli; experiment: Antibacterial activity against extended-spectrum beta-lactamase-producing Escherichia coli 14-1 after 18 to 24 hrs by CLSI M100-S11 method
[14] = tested on: Enterococcus faecalis; experiment: Antibacterial activity against Enterococcus faecalis 14-2 after 18 to 24 hrs by CLSI M100-S11 method
[15] = tested on: Staphylococcus aureus; experiment: Antibacterial activity against Staphylococcus aureus CMCC 26003 after 18 to 24 hrs by CLSI M100-S11 method
[16] = tested on: Klebsiella pneumoniae; experiment: Antibacterial activity against extended-spectrum beta-lactamase-producing Klebsiella pneumoniae 14-17 after 18 to 24 hrs by CLSI M100-S11 method
[17] = tested on: Pseudomonas aeruginosa; experiment: Antibacterial activity against Pseudomonas aeruginosa ATCC 27853 after 18 to 24 hrs by CLSI M100-S11 method
[18] = tested on: Pseudomonas aeruginosa; experiment: Antibacterial activity against Pseudomonas aeruginosa 14-14 after 18 to 24 hrs by CLSI M100-S11 method
[19] = tested on: Klebsiella pneumoniae; experiment: Antibacterial activity against Klebsiella pneumoniae 14-2 after 18 to 24 hrs by CLSI M100-S11 method
[20] = tested on: Staphylococcus epidermidis; experiment: Antibacterial activity against methicillin-sensitive Staphylococcus epidermidis 14-4 after 18 to 24 hrs by CLSI M100-S11 method
[21] = tested on: Escherichia coli; experiment: Antibacterial activity against Escherichia coli ATCC 25922 after 18 to 24 hrs by CLSI M100-S11 method
[22] = tested on: Pseudomonas aeruginosa; experiment: Antibacterial activity against Pseudomonas aeruginosa 14-9 after 18 to 24 hrs by CLSI M100-S11 method
[23] = tested on: Enterococcus faecalis; experiment: Antibacterial activity against Enterococcus faecalis 14-1 after 18 to 24 hrs by CLSI M100-S11 method
[24] = tested on: Enterococcus faecium; experiment: Antibacterial activity against Enterococcus faecium 14-1 after 18 to 24 hrs by CLSI M100-S11 method
[25] = tested on: Enterococcus faecalis; experiment: Antibacterial activity against Enterococcus faecalis 14-3 after 18 to 24 hrs by CLSI M100-S11 method
[26] = tested on: Klebsiella pneumoniae; experiment: Antibacterial activity against Klebsiella pneumoniae 14-3 after 18 to 24 hrs by CLSI M100-S11 method
[27] = tested on: Mycobacterium tuberculosis; experiment: Antimycobacterial activity against Mycobacterium tuberculosis H37Rv ATCC 27294 after 3 days by microplate Alamar Blue assay; conditions: H37Rv ATCC 27294, 72 h
[28] = tested on: Enterococcus faecium; experiment: Antibacterial activity against Enterococcus faecium 14-2 after 18 to 24 hrs by CLSI M100-S11 method
[29] = tested on: Staphylococcus aureus; experiment: Antibacterial activity against methicillin-sensitive Staphylococcus aureus 14-3 after 18 to 24 hrs by CLSI M100-S11 method
[30] = tested on: Staphylococcus epidermidis; experiment: Antibacterial activity against methicillin-resistant Staphylococcus epidermidis 14-39 after 18 to 24 hrs by CLSI M100-S11 method
[31] = tested on: Staphylococcus epidermidis; experiment: Antibacterial activity against methicillin-resistant Staphylococcus epidermidis 14-22 after 18 to 24 hrs by CLSI M100-S11 method
[32] = tested on: Streptococcus pneumoniae; experiment: Antibacterial activity against Streptococcus pneumoniae ATCC 19615 after 18 to 24 hrs by CLSI M100-S11 method
[33] = tested on: Staphylococcus aureus; experiment: Antibacterial activity against methicillin-resistant Staphylococcus aureus 14-4 after 18 to 24 hrs by CLSI M100-S11 method
[34] = tested on: Staphylococcus aureus; experiment: Antibacterial activity against methicillin-sensitive Staphylococcus aureus 14-4 after 18 to 24 hrs by CLSI M100-S11 method
[35] = tested on: Escherichia coli; experiment: Antibacterial activity against Escherichia coli 14-2 after 18 to 24 hrs by CLSI M100-S11 method
[36] = tested on: Staphylococcus epidermidis; experiment: Antibacterial activity against methicillin-sensitive Staphylococcus epidermidis 14-6 after 18 to 24 hrs by CLSI M100-S11 method
[37] = tested on: Klebsiella pneumoniae; experiment: Antibacterial activity against extended-spectrum beta-lactamase-producing Klebsiella pneumoniae 14-18 after 18 to 24 hrs by CLSI M100-S11 method

Structure (SMILES)	MIC [1]	MIC [2]	MIC [3]	MIC [4]	MIC [5]	MIC [6]	MIC [7]	MIC [8]	MIC [9]	MIC [10]	MIC [11]	MIC [12]	MIC [13]	MIC [14]	MIC [15]	MIC [16]	MIC [17]	MIC [18]	MIC [19]	MIC [20]	also measured
CCO/N=C1\CN(c2nc3c(cc2F)c(=O)c(C(=O)O)cn3-c2nc(N)c(F)cc2F)[C@H]1CN	64 µg/mL (≈ 134 µM)	> 128 µg/mL	128 µg/mL (≈ 268 µM)	64 µg/mL (≈ 134 µM)	> 128 µg/mL	> 128 µg/mL	> 128 µg/mL	> 128 µg/mL	64 µg/mL (≈ 134 µM)	> 128 µg/mL	4 µg/mL (≈ 8.38 µM)	> 128 µg/mL	64 µg/mL (≈ 134 µM)	> 128 µg/mL	2 µg/mL (≈ 4.19 µM)	> 128 µg/mL	16 µg/mL (≈ 33.5 µM)	64 µg/mL (≈ 134 µM)	> 128 µg/mL	64 µg/mL (≈ 134 µM)	MIC [21]: 2 µg/mL (≈ 4.19 µM); MIC [22]: 32 µg/mL (≈ 67 µM); MIC [23]: > 128 µg/mL; MIC [24]: > 128 µg/mL; MIC [25]: > 128 µg/mL; MIC [26]: > 128 µg/mL; MIC [27]: > 32 µg/mL; MIC [28]: 32 µg/mL (≈ 67 µM); MIC [29]: 8 µg/mL (≈ 16.8 µM); MIC [30]: > 129 µg/mL; MIC [31]: > 128 µg/mL; MIC [32]: 32 µg/mL (≈ 67 µM); MIC [33]: > 128 µg/mL; MIC [34]: 4 µg/mL (≈ 8.38 µM); MIC [35]: > 128 µg/mL; MIC [36]: 128 µg/mL (≈ 268 µM); MIC [37]: 64 µg/mL (≈ 134 µM)
CO/N=C1\CN(c2nc3c(cc2F)c(=O)c(C(=O)O)cn3-c2nc(N)c(F)cc2F)[C@@H]1CN	64 µg/mL (≈ 138 µM)	> 128 µg/mL	> 128 µg/mL	64 µg/mL (≈ 138 µM)	> 128 µg/mL	> 128 µg/mL	> 128 µg/mL	> 128 µg/mL	64 µg/mL (≈ 138 µM)	> 128 µg/mL	32 µg/mL (≈ 69.1 µM)	> 128 µg/mL	> 128 µg/mL	> 128 µg/mL	16 µg/mL (≈ 34.5 µM)	> 128 µg/mL	64 µg/mL (≈ 138 µM)	64 µg/mL (≈ 138 µM)	> 128 µg/mL	> 128 µg/mL	MIC [21]: 16 µg/mL (≈ 34.5 µM); MIC [22]: 64 µg/mL (≈ 138 µM); MIC [23]: > 128 µg/mL; MIC [24]: > 128 µg/mL; MIC [25]: > 128 µg/mL; MIC [26]: > 128 µg/mL; MIC [27]: > 32 µg/mL; MIC [28]: 64 µg/mL (≈ 138 µM); MIC [29]: 32 µg/mL (≈ 69.1 µM); MIC [30]: > 131 µg/mL; MIC [31]: > 128 µg/mL; MIC [32]: 128 µg/mL (≈ 276 µM); MIC [33]: > 128 µg/mL; MIC [34]: 16 µg/mL (≈ 34.5 µM); MIC [35]: > 128 µg/mL; MIC [36]: > 128 µg/mL; MIC [37]: 64 µg/mL (≈ 138 µM)
